Measured values from patent US20110217300A1, “Quinazolinone Compounds and Methods of Use Thereof” (priority 2007, published 2011).

Experiments:
[1] = tested on: MDA-MB-231 tumor xenografts; test: MDA-MB-231 tumor xenograft efficacy study; assay type: in vivo, mice
Description: Six weeks old female athymic nude mice (NCR nu/nu) received from Charles River Laboratory, acclimated to the animal housing facility for one week before initiation of the study. Mice were housed in sterile cages of 4 each with autoclaved bedding, provided with autoclaved food and water ad libitum. Efficacy studies were performed in athymic mice bearing MDA-MB-231 tumor xenografts to determine the effect of compound on tumor growth. Tumor cells (5×10^6 MDA-MB-231 cells/animal) were inoculated subcutaneously on day 0. Tumor dimensions were measured three times weekly by a digital microcaliper, and tumor volumes were calculated as length×width^2/2. When tumors reached a volume of ˜100 mm^3, mice were randomized into groups and treated 3× weekly (Monday-Wednesday-Friday, followed by a 2-day dosing holiday) intraperitoneally. With either vehicle control or 3 mg/kg, 6 mg/kg and 12 mg/kg compound formulated in DMA/PEG400/water (4:8:88). Results are expressed as mean tumor volume±SE. To assess differences in tumor size between groups, student's t test was performed and significance was assessed for p values <0.05. Tumor size was evaluated periodically during treatment at the indicated days post-inoculation. Results are represented as the mean of tumor volume in mm^3±SE of several tumors (n=8) in function of the treatment period.
The in vivo activity of N-(3-amino-propyl)-3-chloro-N—[(R)-1-(7-chloro-4-oxo-3-phenylamino-3,4-dihydro-quinazolin-2-yl)-but-3-ynyl]-2-fluoro-benzamide was tested using xenograft models using cell lines as reported in Table 4. The experiments were performed using the general procedures and dosages of Examples 106-108.

DU145 xenograft = test: Xenograft model; assay type: in vivo, mice; details: DU145, Prostate; procedures and dosages of Examples 106-108
[2] = tested on: late-stage solid tumors or hematologic malignancies; test: Phase I clinical study, open-label dose escalation, intravenous; assay type: in vivo, patients
Description: An open-label, dose escalation study of intravenous N-(3-amino-propyl)-3-chloro-N—[(R)-1-(7-chloro-4-oxo-3-phenylamino-3,4-dihydro-quinazolin-2-yl)-but-3-ynyl]-2-fluoro-benzamide was performed. The title compound was administered to patients with late-stage solid tumors or hematologic malignancies. […] There were 3-6 patients per cohort.

[3] = patients with the tumor types listed in Table 5

## C#CC[C@H](c1nc2cc(Cl)ccc2c(=O)n1Nc1ccccc1)N(CCCN)C(=O)c1cccc(Cl)c1F [Compound 1, N-(3-Amino-propyl)-3-chloro-N—[(R)-1-(7-chloro-4-oxo-3-phenylamino-3,4-dihydro-quinazolin-2-yl)-but-3-ynyl]-2-fluoro-benzamide]
[1]; 3 mg/kg, 6 mg/kg or 12 mg/kg intraperitoneally 3x weekly, MDA-MB-231 xenograft mice
  tolerability of doses: well-tolerated
[1]; 3 mg/kg, 6 mg/kg or 12 mg/kg intraperitoneally 3x weekly, tumors ~100 mm^3 at start, FIG. 2
  tumor growth compared to the vehicle control group: Significant reductions in tumor growth
[1]; MDA-MB-231, Breast, procedures and dosages of Examples 106-108
  Xenograft Outcome (approximate percent growth inhibition): ~80%
DU145 xenograft
  Xenograft Outcome (approximate percent growth inhibition): ~75%
[2]; Cohort 1, 10 mg/m^2 intravenous, Cholangiocarcinoma (bile duct)
  Duration on Study: 24 weeks
[2]; Cohort 2, 20 mg/m^2 intravenous, Colorectal cancer
  Duration on Study: 17 weeks
[2]; Cohort 2, 20 mg/m^2 intravenous, Liposarcoma (soft tissue)
  Duration on Study: 24 weeks
[2]; Cohort 4, 53 mg/m^2 intravenous, Leiomyosarcoma (smooth muscle)
  Duration on Study: 39 weeks
[2]; Cohort 5, 70 mg/m^2 intravenous, Carcinoid
  Duration on Study: 24 weeks
[2]; Cohort 6, 100 mg/m^2 intravenous, Colorectal cancer
  Duration on Study: 19 weeks
[2]; Cohort 9, 280 mg/m^2 intravenous, Endocervical cancer
  Duration on Study: 36 weeks
[2]; Cohort 9, 280 mg/m^2 intravenous, Malignant Thymoma, patient still on study (active)
  Duration on Study: 24 (active) weeks
[2]; endocervical cancer patient, before withdrawing consent
  response: minor response
[2]; leiomyosarcoma patient, stayed on study afterwards
  disease course: tumor progression at cycle 6
[2]; [3]
  disease status: stable diseases for an extended period
  time patients stayed on study: greater than 16 weeks
